Data as given in PubChem BioAssay (NCI).
Values joined by “and” are separate entries in the source; they are usually repeats but may differ in a detail not shown here. Equal entries are not always repeated.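 How tested: cells in 96-well plates exposed to compound for 48 hours at five concentrations. Here, GI50 denotes the concentration required for 50% inhibition of growth. TGI marks complete inhibition of growth.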

Legend:
Assay in all cases: NCI-60 cell line screen, 48 h
NCI-H460 lung = system: NCI-H460 lung
DU-145 prostate = system: DU-145 prostate
UACC-62 melanoma = system: UACC-62 melanoma
HT29 colon = system: HT29 colon
A549 NSCLC = system: A549 NSCLC
HOP-62 NSCLC = system: HOP-62 NSCLC
SK-MEL-5 melanoma = system: SK-MEL-5 melanoma
MCF7 breast = system: MCF7 breast
K-562 leukemia = system: K-562 leukemia
NCI-H226 lung = system: NCI-H226 lung

Structure (SMILES)	GI50 (NCI-H460 lung)	TGI (NCI-H460 lung)	GI50 (DU-145 prostate)	TGI (DU-145 prostate)	GI50 (UACC-62 melanoma)	TGI (UACC-62 melanoma)	GI50 (HT29 colon)	TGI (HT29 colon)	GI50 (A549 NSCLC)	TGI (A549 NSCLC)	GI50 (HOP-62 NSCLC)	TGI (HOP-62 NSCLC)	GI50 (SK-MEL-5 melanoma)	TGI (SK-MEL-5 melanoma)	GI50 (MCF7 breast)	TGI (MCF7 breast)	GI50 (K-562 leukemia)	TGI (K-562 leukemia)	GI50 (NCI-H226 lung)	TGI (NCI-H226 lung)
Nc1ccn([C@H]2C[C@@H](O)[C@@H](CO)S2)c(=O)n1	34.9 µM	> 100 µM	> 100 µM	> 100 µM	> 100 µM	> 100 µM	> 100 µM	> 100 µM	> 100 µM	> 100 µM	> 32 µM	> 100 µM	> 42.3 µM	> 100 µM	> 100 µM	> 100 µM	> 100 µM	> 100 µM	> 100 µM	> 100 µM
CCC(=O)OC1CCn2c1nc1c2C(=O)C(C)=C(N2CC2)C1=O (configuration not stated)	0.0141 µM	0.0452 µM and 0.124 µM	–	0.0503 µM	0.0231 µM	0.0577 µM and 0.127 µM	–	1.09 µM and 0.495 µM	0.0233 µM	–	0.0189 µM	0.0431 µM and 0.143 µM	0.165 µM	0.0765 µM and 0.319 µM	–	0.0569 µM	0.128 µM and 0.739 µM	–	0.186 µM	0.441 µM and 0.319 µM
O=C(Nc1cnn2ccc(N3CCC[C@@H]3c3cc(F)ccc3F)nc12)N1CC[C@H](O)C1	> 100 µM	> 100 µM	> 100 µM	> 100 µM	> 100 µM	> 100 µM	> 100 µM	> 100 µM	> 100 µM	> 100 µM	> 100 µM	> 100 µM	> 100 µM	> 100 µM	> 100 µM	> 100 µM	> 100 µM	> 100 µM	> 100 µM	> 100 µM
COc1cccc(/C=C/C(=O)c2ccc(Cl)cc2Cl)c1OC	8.37 µM	> 100 µM	11.4 µM	27.5 µM	10.6 µM	24 µM	5.04 µM	17.3 µM	10.4 µM	24.7 µM	16.6 µM	30.3 µM	13.3 µM	28.1 µM	4.52 µM	32 µM	2.39 µM	5.72 µM	9.96 µM	29.6 µM
COc1cc2cc(Oc3ccc(NC(=O)Nc4ccccc4)cc3)c(C)nc2cc1OCCN1CCCCC1	6.05 µM	11.2 µM	5.92 µM	11.4 µM	5.89 µM	11 µM	3.32 µM	9.35 µM	7.26 µM	18.6 µM	5.96 µM	12.9 µM	5.47 µM	10.1 µM	5.14 µM	10 µM	1.05 µM	3.7 µM	5.82 µM	12 µM
CC(C)(C)OC(=O)NCCCCCCCCn1c2c(c3ccccc3c1=O)C(=O)c1ccccc1-2	> 50 µM	> 50 µM	> 50 µM	> 50 µM	20.3 µM	> 50 µM	> 50 µM	> 50 µM	> 50 µM	> 50 µM	11.6 µM	35 µM	> 40 µM	> 50 µM	> 50 µM	> 50 µM	> 50 µM	> 50 µM	22.3 µM	> 50 µM
C=C(CN1CCN(c2cccc(C(F)(F)F)c2)CC1)c1ccc(C(=O)Nc2ccccc2N)cc1	1.56 µM	> 24.8 µM	1.36 µM	7.23 µM	0.409 µM	4.89 µM	1.46 µM	> 50 µM	1.48 µM	> 27.3 µM	0.696 µM	6.27 µM	0.568 µM	6.72 µM	1.25 µM	> 27.5 µM	0.185 µM	8.27 µM	1.89 µM	20.1 µM
N#C/C(=C/C=C(\Cl)c1ccc(Cl)cc1)C(N)=O	4.65 µM	> 100 µM	3.31 µM	12.5 µM	5.87 µM	20.6 µM	3.38 µM	> 36.5 µM	7.54 µM	15.4 µM	2.36 µM	4.33 µM	4.56 µM	15.1 µM	4.91 µM	> 100 µM	1.47 µM	> 100 µM	4.96 µM	13.9 µM
CC(CN)[C@@H]1CC[C@]2(CO)CC[C@]3(C)[C@H](CC[C@@H]4[C@@]5(C)CCC(NCCO)C(C)(C)[C@@H]5CC[C@]43C)[C@@H]12 (some centres not stated)	1.79 µM	3.43 µM	2.34 µM	5.32 µM	1.8 µM	3.37 µM	1.62 µM	3.26 µM	1.68 µM	3.08 µM	2 µM	4.08 µM	1.76 µM	3.19 µM	1.78 µM	3.62 µM	1.54 µM	3.35 µM	3.94 µM	17.5 µM
O=C1C=CC(=O)C1(Br)Br	–	41.6 µM	–	39 µM	–	25.3 µM	–	32.7 µM	–	31.7 µM	–	38.4 µM	–	34 µM	–	34.6 µM	–	> 95.1 µM	–	38.2 µM
CS(=O)(=O)N1CCN(Cc2cc3nc(-c4cccc5[nH]ncc45)nc(N4CCOCC4)c3s2)CC1 (tested in a mixture with another compound)	0.0796 µM	–	0.0837 µM	–	0.105 µM	0.706 µM	0.074 µM	–	0.0213 µM	0.0487 µM	0.112 µM	–	0.201 µM	0.638 µM	0.0509 µM	–	0.349 µM	–	0.374 µM	–
COc1cc2c3c(n(CCCN4CCN(C)CC4)c(=O)c2cc1OC)-c1cc2c(cc1C3=O)OCO2	5.8 µM	28.2 µM	10.6 µM	27.5 µM	15.1 µM	34.2 µM	16.9 µM	> 100 µM	18.7 µM	84.2 µM	18 µM	95.8 µM	14.2 µM	32.2 µM	8.82 µM	64.8 µM	6.49 µM	22 µM	13.9 µM	31 µM
COc1ccc(C2NCCc3c2[nH]c2ccccc32)cc1CN1CCN(c2ccc(F)cc2)CC1 (configuration not stated)	1.85 µM	3.49 µM	2.76 µM	7.81 µM	1.8 µM	3.32 µM	1.7 µM	3.49 µM	2.9 µM	9.29 µM	1.81 µM	3.82 µM	1.63 µM	3.01 µM	1.66 µM	3.27 µM	1.73 µM	4.09 µM	13 µM	35.1 µM
COc1ccc(/C=C(/C(=O)N2CCCC2)c2cc(OC)c(OC)c(OC)c2)cc1N	2.96 µM	> 100 µM	2.65 µM	> 100 µM	1.03 µM	> 100 µM	2.3 µM	> 100 µM	4.14 µM	> 100 µM	4.07 µM	> 100 µM	2.51 µM	> 100 µM	0.921 µM	> 100 µM	0.926 µM	> 100 µM	4.44 µM	> 100 µM
C/C=C(\C)C(=O)O[C@@H]1C(O)[C@H]2OC(COC(=O)CCC(=O)CCCCCC[C@H](CCCCC)O[C@@H]3OC(C)[C@H](OC(C)=O)C(O)[C@H]3O2)[C@H]1OC(=O)/C=C/c1ccccc1 (some centres not stated)	< 0.01 µM	> 60.9 µM	0.0201 µM	> 44.2 µM	0.0176 µM	1.01 µM	< 0.01 µM	0.652 µM	< 0.01 µM	32.3 µM	< 0.0148 µM	7.18 µM	< 0.01 µM	–	< 0.01 µM	17.3 µM	< 0.01 µM	> 100 µM	0.0643 µM	7.38 µM
Cc1cc(S(=O)(=O)Nc2nc3ccsc3c(=O)n2Cc2ccco2)c(S)cc1Cl	60.6 µM	> 100 µM	> 100 µM	> 100 µM	53.1 µM	> 100 µM	> 100 µM	> 100 µM	> 100 µM	> 100 µM	> 100 µM	> 100 µM	42.9 µM	> 100 µM	> 100 µM	> 100 µM	25.6 µM	> 100 µM	> 100 µM	> 100 µM
CCOC(=O)/C=C1\SC(=Nc2ccc(C#N)cc2)N(CCN2C(=O)/C(=C/C(=O)OCC)SC2=Nc2ccc(C#N)cc2)C1=O	1.81 µM	7.35 µM	3.04 µM	13.6 µM	3.25 µM	17.9 µM	1.11 µM	10.1 µM	15.4 µM	51.2 µM	2.55 µM	8.39 µM	5.43 µM	18.9 µM	0.353 µM	17.7 µM	0.786 µM	> 100 µM	3.53 µM	14.3 µM
Cn1ccc(=Nc2ccc(NC(=O)c3ccc(N=c4ccn(C)c5ccc([N+](=O)[O-])cc45)cc3)cc2)cc1	22.6 µM	> 100 µM	4.43 µM	> 100 µM	17.8 µM	> 100 µM	7.54 µM	> 100 µM	7.31 µM	> 100 µM	8.25 µM	> 100 µM	20.3 µM	> 100 µM	2.36 µM	> 100 µM	6.75 µM	> 100 µM	74.3 µM	> 100 µM
